This note sets out measurements from patent publication US20120053197A1, “TRICYCLIC PYRIDINE DERIVATIVES, MEDICAMENTS CONTAINING SUCH COMPOUNDS, THEIR USE AND PROCESS FOR THEIR PREPARATION” (BOEHRINGER INGELHEIM INTERNATIONAL GMBH, priority 2010, published 2012).

The target of this assay is T1, recombinant human CETP (Homo sapiens, UniProt P11597).
T1 construct: made in house; host or cells: CHO cells (protein secreted into conditioned medium)
T1 sequence (P11597 18-493): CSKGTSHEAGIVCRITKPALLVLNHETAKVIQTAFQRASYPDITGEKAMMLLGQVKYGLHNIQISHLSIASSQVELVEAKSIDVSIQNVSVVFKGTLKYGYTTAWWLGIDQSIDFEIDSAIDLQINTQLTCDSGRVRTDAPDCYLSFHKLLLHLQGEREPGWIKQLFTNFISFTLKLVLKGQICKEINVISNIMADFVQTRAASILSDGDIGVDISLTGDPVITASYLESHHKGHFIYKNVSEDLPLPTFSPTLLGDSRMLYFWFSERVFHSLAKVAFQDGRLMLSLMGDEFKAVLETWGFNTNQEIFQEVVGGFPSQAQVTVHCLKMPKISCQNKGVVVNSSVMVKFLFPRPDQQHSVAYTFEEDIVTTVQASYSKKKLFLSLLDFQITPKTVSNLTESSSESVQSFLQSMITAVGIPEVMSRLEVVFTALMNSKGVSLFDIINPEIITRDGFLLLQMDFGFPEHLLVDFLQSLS
Kind of assay: CETP in vitro fluorometric assay (Roar Biomedical), cholesterol ester transfer from HDL to LDL. It counts as biochemical. As to conditions: recombinant human CETP from CHO cells; 3 hours at 37° C.; fluorescence ex 485 nm / em 535 nm; compound concentrations between 1 nM and 30 μM; read-out: IC50 values for inhibition of CETP. On the procedure:
CETP inhibitory activity of compounds of the present invention can be determined in a fluorometric assay puchased from Roar Biomedical, Inc. (New York, N.Y., USA). […] Recombinant human CETP was partially purified from medium conditioned by CETP expressing CHO cells. In a 384 well format 2.5 μl of compound solution in DMSO was combined with 2 μl of donor solution, 2 μl of acceptor solution and 0.8 μl of recombinant human CETP solution in a total volume of 100 μl with assay buffer and incubated for 3 hours at 37° C. The fluorescence intensity was measured at excitation wavelength of 485 nm and emission wavelength of 535 nm. IC50 values are calculated from dose effect curves from compound concentrations between 1 nM and 30 μM.
One may read the IC50 as the point on the concentration scale where inhibition reaches its midpoint. Consider `CC(C)c1nc2c(c3c1[C@@H](c1ccc(C(F)(F)F)cn1)OC31CCCC1)[C@@H](O)CC(C)(C)C2` [1(21), (3′S,9′S)-4′-isopropyl-7′,7′-dimethyl-3′-(5-(trifluoromethyl)pyridin-2-yl)-6′,7′,8′,9′-tetrahydro-3′H-spiro[cyclopentane-1,1′-furo[3,4-c]quinolin]-9′-ol], for which the IC50 turned out to be 124 nM. With `CC(C)Cc1ccc([C@H]2OC3(CCCC3)c3c2c(C(C)C)nc2c3[C@@H](O)CC(C)(C)C2)cc1` [1(27), (3′R,9′S)-3′-(4-isobutylphenyl)-4′-isopropyl-7′,7′-dimethyl-6′,7′,8′,9′-tetrahydro-3′H-spiro[cyclopentane-1,1′-furo[3,4-c]quinolin]-9′-ol] the figure was 299 nM; with `CC(C)c1nc2c(c3c1[C@@H](c1ccc(C(C)(C)O)cc1)OC31CCCC1)[C@@H](O)CC(C)(C)C2` [1(26), (3′R,9′S)-3′-(4-(2-hydroxypropan-2-yl)phenyl)-4′-isopropyl-7′,7′-dimethyl-6′,7′,8′,9′-tetrahydro-3′H-spiro[cyclopentane-1,1′-furo[3,4-c]quinolin]-9′-ol], 875 nM. To `CC(C)c1nc2c(c3c1[C@@H](c1ccc(C(F)(F)F)c(F)c1)OC31CCCC1)[C@@H](O)CC(C)(C)C2` [1(16), (3′R,9′S)-3′-(3-fluoro-4-(trifluoromethyl)phenyl)-4′-isopropyl-7′,7′-dimethyl-6′,7′,8′,9′-tetrahydro-3′H-spiro[cyclopentane-1,1′-furo[3,4-c]quinolin]-9′-ol] belongs 43 nM; to `CC(C)c1nc2c(c3c1[C@@H](c1ccc(C(F)(F)F)cc1)OC3(C)C)[C@@H](O)CC(C)(C)C2` [1(3), (3R,9S)-4-isopropyl-1,1,7,7-tetramethyl-3-(4-(trifluoromethyl)phenyl)-1,3,6,7,8,9-hexahydrofuro[3,4-c]quinolin-9-ol], 460 nM; to `CC(=O)O[C@H]1c2nc(C(C)C)c3c(c2[C@@H](O)CC1(C)C)C1(CCCC1)O[C@@H]3c1ccc(C(F)(F)F)cc1` [1(33), (3′R,6′R,9′S)-9′-hydroxy-4′-isopropyl-7′,7′-dimethyl-3′-(4-(trifluoromethyl)phenyl)-6′,7′,8′,9′-tetrahydro-3′H-spiro[cyclopentane-1,1′-furo[3,4-c]quinoline]-6′-yl acetate], 229 nM. Consider `CC(C)c1nc2c(c3c1[C@@H](c1ccc(C(C)(F)F)cc1)OC31CCCC1)[C@@H](O)CC(C)(C)C2` [1(32), (3′R,9′S)-3′-(4-(1,1-difluoroethyl)phenyl)-4′-isopropyl-7′,7′-dimethyl-6′,7′,8′,9′-tetrahydro-3′H-spiro[cyclopentane-1,1′-furo[3,4-c]quinolin]-9′-ol], for which the IC50 was 62 nM. To `CC(C)c1nc2c(c3c1[C@@H](c1cc(F)cc(F)c1)OC31CCCC1)[C@@H](O)CC(C)(C)C2` [1(38), (3′R,9′S)-3′-(3,5-difluorophenyl)-4′-isopropyl-7′,7′-dimethyl-6′,7′,8′,9′-tetrahydro-3′H-spiro[cyclopentane-1,1′-furo[3,4-c]quinolin]-9′-ol] belongs 3320 nM; to `CC(C)c1nc2c(c3c1[C@@H](c1ccc(C(C)(C)C#N)cc1)OC31CCCC1)[C@@H](O)CC(C)(C)C2` [1(22), 2-(4-((3′R,9′S)-9′-hydroxy-4′-isopropyl-7′,7′-dimethyl-6′,7′,8′,9′-tetrahydro-3′H-spiro[cyclopentane-1,1′-furo[3,4-c]quinoline]-3′-yl)phenyl)-2-methylpropanenitrile], 47 nM. `CC(C)c1nc2c(c3c1[C@@H](c1ccc(Cl)cc1)OC31CCCC1)[C@@H](O)CC(C)(C)C2` [1(9), (3′R,9′S)-3′-(4-chlorophenyl)-4′-isopropyl-7′,7′-dimethyl-6′,7′,8′,9′-tetrahydro-3′H-spiro[cyclopentane-1,1′-furo[3,4-c]quinolin]-9′-ol]: the IC50 came out at 148 nM. To `CC(C)c1nc2c(c3c1[C@@H](c1ccc(C(F)(F)F)cc1)OC31CCCC1)[C@@H](O)CC(C)(C)C2` [Example 1, (3′R,9′S)-4′-isopropyl-7′,7′-dimethyl-3′-(4-(trifluoromethyl)phenyl)-6′,7′,8′,9′-tetrahydro-3′H-spiro[cyclopentane-1,1′-furo[3,4-c]quinolin]-9′-ol] belongs 54 nM; to `CC1(C)Cc2nc(C3CCOCC3)c3c(c2[C@@H](O)C1)C1(CCOCC1)O[C@@H]3c1ccc(C(F)(F)F)cc1` [1(39), (3R,9S)-7,7-dimethyl-4-(tetrahydro-2H-pyran-4-yl)-3-(4-(trifluoromethyl)phenyl)-2′,3′,5′,6,6′,7,8,9-octahydro-3H-spiro[furo[3,4-c]quinoline-1,4′-pyran]-9-ol], 56 nM. Regarding `CC(C)c1nc2c(c3c1[C@@H](c1ccc(C4CC4)cc1)OC31CCCC1)[C@@H](O)CC(C)(C)C2` [1(45), (3′R,9′S)-3′-(4-cyclopropylphenyl)-4′-isopropyl-7′,7′-dimethyl-6′,7′,8′,9′-tetrahydro-3′H-spiro[cyclopentane-1,1′-furo[3,4-c]quinolin]-9′-ol], the IC50 came to 122 nM. With `CC(C)c1nc2c(c3c1[C@@H](c1ccc(C(F)(F)F)cc1)OC31CCCC1)[C@@H](O)CC(C)(C)[C@H]2O` [Example 3, (3′R,6′R,9′S)-4′-isopropyl-7′,7′-dimethyl-3′-(4-(trifluoromethyl)phenyl)-6′,7′,8′,9′-tetrahydro-3′H-spiro[cyclopentane-1,1′-furo[3,4-c]quinoline]-6′,9′-diol] the figure was 20 nM; with `CC(C)c1nc2c(c3c1[C@H](c1ccc(C(F)(F)F)cc1)O[C@]31C=CCC1)[C@@H](O)CC(C)(C)C2` [1(2), (1R,3′S,9′S)-4′-isopropyl-7′,7′-dimethyl-3′-(4-(trifluoromethyl)phenyl)-6′,7′,8′,9′-tetrahydro-3′H-spiro[cyclopent[2]ene-1,1′-furo[3,4-c]quinolin]-9′-ol], 4680 nM.

Consider `CC(C)c1nc2c(c3c1[C@@H](c1ccc(C4(C)CC4)cc1)OC31CCCC1)[C@@H](O)CC(C)(C)C2` [1(40), (3′R,9′S)-4′-isopropyl-7′,7′-dimethyl-3′-(4-(1-methylcyclopropyl)phenyl)-6′,7′,8′,9′-tetrahydro-3′H-spiro[cyclopentane-1,1′-furo[3,4-c]quinolin]-9′-ol], for which the IC50 was 37 nM. To `CC(C)c1nc2c(c3c1[C@@H](c1ccc(OC(F)(F)F)cc1)OC31CCCC1)[C@@H](O)CC(C)(C)C2` [1(17), (3′R,9′S)-4′-isopropyl-7′,7′-dimethyl-3′-(4-(trifluoromethoxy)phenyl)-6′,7′,8′,9′-tetrahydro-3′H-spiro[cyclopentane-1,1′-furo[3,4-c]quinolin]-9′-ol] belongs 131 nM; to `CC1(C)Cc2nc(C3CCCC3)c3c(c2[C@@H](O)C1)C1(CCCC1)O[C@@H]3c1cccc(C(C)(C)C)c1` [1(31), (3′R,9′S)-3′-(3-tert-butylphenyl)-4′-cyclopentyl-7′,7′-dimethyl-6′,7′,8′,9′-tetrahydro-3′H-spiro[cyclopentane-1,1′-furo[3,4-c]quinolin]-9′-ol], 1070 nM; to `CC1(C)Cc2nc(C3CCCC3)c3c(c2[C@@H](O)C1)C1(CCCC1)O[C@@H]3c1ccc(C(F)(F)F)cc1` [1(6), (3′R,9′S)-4′-cyclopentyl-7′,7′-dimethyl-3′-(4-(trifluoromethyl)phenyl)-6′,7′,8′,9′-tetrahydro-3′H-spiro[cyclopentane-1,1′-furo[3,4-c]quinolin]-9′-ol], 37 nM. As for `CC(C)c1nc2c(c3c1[C@@H](c1ccc(C(F)(F)F)cc1)OC31CCCC1)[C@@H](O)CC1(CCC1)C2` [1(15), (3′R,9′S)-4′-isopropyl-7′,7′-(propan-1,3-diyl)-3′-(4-(trifluoromethyl)phenyl)-6′,7′,8′,9′-tetrahydro-3′H-spiro[cyclopentane-1,1′-furo[3,4-c]quinolin]-9′-ol], the IC50 is 21 nM. Regarding `CC(C)c1nc2c(c3c1[C@@H](c1cccc(C(F)(F)F)c1)OC31CCCC1)[C@@H](O)CC(C)(C)C2` [1(41), (3′R,9′S)-4′-isopropyl-7′,7′-dimethyl-3′-(3-(trifluoromethyl)phenyl)-6′,7′,8′,9′-tetrahydro-3′H-spiro[cyclopentane-1,1′-furo[3,4-c]quinolin]-9′-ol], the IC50 was determined as 524 nM. With `CC1(C)Cc2nc(C3CCOCC3)c3c(c2[C@@H](O)C1)C1(CCCC1)O[C@@H]3c1ccc(S(F)(F)(F)(F)F)cc1` [1(43), (3′R,9′S)-7′,7′-dimethyl-4′-(tetrahydro-2H-pyran-4-yl)-3′-(4-(pentafluorosulfanyl)phenyl)-6′,7′,8′,9′-tetrahydro-3′H-spiro[cyclopentane-1,1′-furo[3,4-c]quinolin]-9′-ol] the figure was 22 nM; with `CC(C)c1ccc([C@H]2OC3(CCCC3)c3c2c(C(C)C)nc2c3[C@@H](O)CC(C)(C)C2)cc1` [1(7), (3′R,9′S)-4′-isopropyl-3′-(4-isopropylphenyl)-7′,7′-dimethyl-6′,7′,8′,9′-tetrahydro-3′H-spiro[cyclopentane-1,1′-furo[3,4-c]quinolin]-9′-ol], 77 nM.
